# According to PubChem BioAssay AID1963867 (Molecular Pharmacology Branch, DTP, NCI, 2024):
# System: KRAS-mutant PDC tumor spheroid with HUVEC/MSC, viability
# Test: Anticancer human tumor 327498-153-R-J2-PDC patient-derived uterine carcinosarcoma cell line growth inhibition [KRAS2]
# Settings: for IC50: curve of first compound; for viability, T/C: stronger effect = lower value
# Procedure, shortened: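 Combination screen of spheroid viability in tumor-cell co-cultures with endothelial (HUVEC) and mesenchymal stem cell stroma. Each agent was tested in half-log dilutions, topping at clinical Cmax or at 10 microM without a known Cmax.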
# [1] = second compound 0.1 µM, first compound 0.0316 µM
# [2] = second compound 0.1 µM, first compound 0.1 µM
# [3] = second compound 0.1 µM, first compound 0.316 µM
# [4] = second compound 0.1 µM, first compound 1 µM
# [5] = second compound 0.1 µM, first compound 3.16 µM
# [6] = second compound 0.1 µM, first compound 10 µM
# [7] = second compound 0.316 µM, first compound 0.0316 µM
# [8] = second compound 0.316 µM, first compound 0.1 µM
# [9] = second compound 0.316 µM, first compound 0.316 µM
# [10] = second compound 0.316 µM, first compound 1 µM
# [11] = second compound 0.316 µM, first compound 3.16 µM
# [12] = second compound 0.316 µM, first compound 10 µM
# [13] = second compound 1 µM, first compound 0.0316 µM
# [14] = second compound 1 µM, first compound 0.1 µM
# [15] = second compound 1 µM, first compound 0.316 µM
# [16] = second compound 1 µM, first compound 1 µM
# [17] = second compound 1 µM, first compound 3.16 µM
# [18] = second compound 1 µM, first compound 10 µM
# [19] = second compound 3.16 µM, first compound 0.0316 µM
# [20] = second compound 3.16 µM, first compound 0.1 µM
# [21] = second compound 3.16 µM, first compound 0.316 µM
# [22] = second compound 3.16 µM, first compound 1 µM
# [23] = second compound 3.16 µM, first compound 3.16 µM
# [24] = second compound 3.16 µM, first compound 10 µM
# [25] = second compound 10 µM, first compound 0.0316 µM
# [26] = second compound 10 µM, first compound 0.1 µM
# [27] = second compound 10 µM, first compound 0.316 µM
# [28] = second compound 10 µM, first compound 1 µM
# [29] = second compound 10 µM, first compound 3.16 µM
# [30] = second compound 10 µM, first compound 10 µM
# [31] = second compound 0.1 µM, first compound 0.000316 µM
# [32] = second compound 0.1 µM, first compound 0.001 µM
# [33] = second compound 0.1 µM, first compound 0.00316 µM
# [34] = second compound 0.1 µM, first compound 0.01 µM
# [35] = second compound 0.316 µM, first compound 0.000316 µM
# [36] = second compound 0.316 µM, first compound 0.001 µM
# [37] = second compound 0.316 µM, first compound 0.00316 µM
# [38] = second compound 0.316 µM, first compound 0.01 µM
# [39] = second compound 1 µM, first compound 0.000316 µM
# [40] = second compound 1 µM, first compound 0.001 µM
# [41] = second compound 1 µM, first compound 0.00316 µM
# [42] = second compound 1 µM, first compound 0.01 µM
# [43] = second compound 3.16 µM, first compound 0.000316 µM
# [44] = second compound 3.16 µM, first compound 0.001 µM
# [45] = second compound 3.16 µM, first compound 0.00316 µM
# [46] = second compound 3.16 µM, first compound 0.01 µM
# [47] = second compound 10 µM, first compound 0.000316 µM
# [48] = second compound 10 µM, first compound 0.001 µM
# [49] = second compound 10 µM, first compound 0.00316 µM
# [50] = second compound 10 µM, first compound 0.01 µM
# 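Also: spheroids exposed to agents for seven days before reading.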
# 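For viability, T/C in this document: 100% = DMSO vehicle wells so lower means fewer viable cells.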
SMILES,IC50 (second compound 0.1 µM) [nM],IC50 (second compound 0.316 µM) [nM],IC50 (second compound 1 µM) [nM],IC50 (second compound 3.16 µM) [nM],IC50 (second compound 10 µM) [nM],"viability, T/C [1] [%]","viability, T/C [2] [%]","viability, T/C [3] [%]","viability, T/C [4] [%]","viability, T/C [5] [%]","viability, T/C [6] [%]","viability, T/C [7] [%]","viability, T/C [8] [%]","viability, T/C [9] [%]","viability, T/C [13] [%]","viability, T/C [14] [%]","viability, T/C [19] [%]","viability, T/C [20] [%]","viability, T/C [25] [%]","viability, T/C [26] [%]",further results
CC(C)NCC(C(=O)N1CCN(c2ncnc3c2C(C)CC3O)CC1)c1ccc(Cl)cc1 (stereo not given) + COc1cc2nc(C)nc(NC(C)c3cc(N)cc(C(F)(F)F)c3)c2cc1OC1CCOC1,195,102,90.7,< 31.6,< 31.6,70.8,57.7,44,26.3,9.54,9.87,62.5,49.5,34.4,60,51,54.4,42.1,37.8,27.3,"viability, T/C [10]: 21.7%; viability, T/C [11]: 8.09%; viability, T/C [12]: 9.57%; viability, T/C [15]: 28.8%; viability, T/C [16]: 17.7%; viability, T/C [17]: 7.32%; viability, T/C [18]: 3.46%; viability, T/C [21]: 43.6%; viability, T/C [22]: 14.2%; viability, T/C [23]: 8.44%; viability, T/C [24]: 8.27%; viability, T/C [27]: 16.6%; viability, T/C [28]: 5.51%; viability, T/C [29]: 0.16%; viability, T/C [30]: 0.34%"
CC(C)n1nc(-c2ccc3oc(N)nc3c2)c2c(N)ncnc21 + COc1cc2nc(C)nc(NC(C)c3cc(N)cc(C(F)(F)F)c3)c2cc1OC1CCOC1,4.34,2.29,1.98,0.824,< 0.316,10.2,6.27,–,–,–,–,8.8,6.67,–,8.62,6.87,7.65,4.15,3.51,1.94,"viability, T/C [31]: 77.5%; viability, T/C [32]: 71.7%; viability, T/C [33]: 59.1%; viability, T/C [34]: 27.3%; viability, T/C [35]: 71.5%; viability, T/C [36]: 60.4%; viability, T/C [37]: 46.5%; viability, T/C [38]: 23.3%; viability, T/C [39]: 60.2%; viability, T/C [40]: 63.7%; viability, T/C [41]: 40.1%; viability, T/C [42]: 26.3%; viability, T/C [43]: 52.6%; viability, T/C [44]: 50.1%; viability, T/C [45]: 36.1%; viability, T/C [46]: 17.1%; viability, T/C [47]: 38.8%; viability, T/C [48]: 35.5%; viability, T/C [49]: 23.4%; viability, T/C [50]: 17.4%"
CC1(C)CCC(CN2CCN(c3ccc(C(=O)NS(=O)(=O)c4ccc(NCC5CCOCC5)c([N+](=O)[O-])c4)c(Oc4cnc5[nH]ccc5c4)c3)CC2)=C(c2ccc(Cl)cc2)C1 + COc1cc2nc(C)nc(NC(C)c3cc(N)cc(C(F)(F)F)c3)c2cc1OC1CCOC1,3200,2270,2010,1490,178,78.8,80.5,76.9,77.3,50.5,4.9,74.3,64.3,75.4,74.1,72,65.2,65.3,53,54.6,"viability, T/C [10]: 71.1%; viability, T/C [11]: 41.5%; viability, T/C [12]: 1.82%; viability, T/C [15]: 65.9%; viability, T/C [16]: 67.8%; viability, T/C [17]: 38.8%; viability, T/C [18]: 0.73%; viability, T/C [21]: 66.7%; viability, T/C [22]: 61.5%; viability, T/C [23]: 28.4%; viability, T/C [24]: 3.34%; viability, T/C [27]: 42.1%; viability, T/C [28]: 39.9%; viability, T/C [29]: 11.5%; viability, T/C [30]: 0.44%"
Cn1ncnc1[C@H]1c2n[nH]c(=O)c3cc(F)cc(c23)N[C@@H]1c1ccc(F)cc1 + COc1cc2nc(C)nc(NC(C)c3cc(N)cc(C(F)(F)F)c3)c2cc1OC1CCOC1,12.5,9.03,4.31,7.37,1.4,33.3,20.1,–,–,–,–,32.2,20.5,–,28.7,20.1,26.5,20.4,27.8,18.5,"viability, T/C [31]: 79.3%; viability, T/C [32]: 82.3%; viability, T/C [33]: 68.9%; viability, T/C [34]: 54.5%; viability, T/C [35]: 82.1%; viability, T/C [36]: 63.5%; viability, T/C [37]: 68.6%; viability, T/C [38]: 48.1%; viability, T/C [39]: 76.6%; viability, T/C [40]: 69.7%; viability, T/C [41]: 50%; viability, T/C [42]: 42.1%; viability, T/C [43]: 62.9%; viability, T/C [44]: 68.8%; viability, T/C [45]: 58.1%; viability, T/C [46]: 47.3%; viability, T/C [47]: 50%; viability, T/C [48]: 51.6%; viability, T/C [49]: 48.5%; viability, T/C [50]: 42%"
